# Measurements taken from patent publication US20060030711A1 (priority 2004, published 2006).
# Read-outs that look alike come from different tables or passages of the source.
# Legend:
# [1] = thermodynamic stability of polymorphs (DSC comparison); format: physicochemical
# Procedure: Pipindoxifene hydrochloride monohydrate can also exist as form I polymorph. Sample data for certain physical properties are compared for form I and form II polymorphs below in Table 2.
# DSC measurements were carried out in both sealed pan and vented pan at a scan rate of 10° C./min from 25° C. to 200° C. under nitrogen purge using a Pyris I DSC from Perkin-Elmer.
# uterus = conditions: tissue selective estrogenic effects; cited from earlier work
# [2] = test system: tamoxifen-sensitive cells lines; conditions: other studies; cited from earlier work
# [3] = test system: tamoxifen-resistent MCF-7 breast cancer xenografts; conditions: recent preclinical studies; cited from earlier work
compound,measurement,setting,value
"Cc1c(-c2ccc(O)cc2)n(Cc2ccc(OCCN3CCCCC3)cc2)c2ccc(O)cc12.Cl [Form I, pipindoxifene hydrochloride monohydrate]",thermodynamic stability of crystalline polymorph,"[1]; form I versus form II, from Table 2 DSC data, hydrochloride monohydrate",thermodynamically more stable than form II
"Cc1c(-c2ccc(O)cc2)n(Cc2ccc(OCCN3CCCCC3)cc2)c2ccc(O)cc12.Cl [form II, pipindoxifene hydrochloride monohydrate]",thermodynamic stability of crystalline polymorph,[1],Less thermodynamically stable
"Cc1c(-c2ccc(O)cc2)n(Cc2ccc(OCCN3CCCCC3)cc2)c2ccc(O)cc12.Cl [pipindoxifene, 2-(4-hydroxyphenyl)-3-methyl-1-[4-(2-piperidin-1-ylethoxy)-benzyl]-1H-indol-5-ol hydrochloride]",uterotropic activity,uterus,little or no uterotropic activity
same,effectiveness in tamoxifen-sensitive cell lines,[2],effectiveness
same,growth of tamoxifen-resistant MCF-7 breast cancer xenografts,[3],inhibited the growth
